Reference: paper PMC6271697, “Anticancer Activities of Polyynes from the Root Bark of Oplopanax horridus and Their Acetylated Derivatives” (Molecules, 2014)
Where “and” joins values, the source holds several entries; their conditions need not be identical. Equal values may be shown once. Read-outs that look alike come from different tables or passages of the source.

Experiments:
Assay type in all cases: cell-based, human
A549 cells = assay: MTT cell viability assay, A549 cells; details: for IC50: read-out: IC50 A549; for antiproliferative effect on A549 cells (in words): concentrations 1–300 µM
Protocol: (§1) The human breast cancer cell lines MCF-7, MDA-MB-231, human hepatocellular liver cell line HepG2 and human lung carcinoma epithelial cells A549 were purchased from American Type Culture Collection (ATCC, Manassas, VA, USA). Normal human hepatic LO2 cells were obtained from the Institute of Cell Biology, Academic Sinica (Shanghai, China). The cells were grown in an atmosphere of 5% CO2 at 37 °C in RPMI 1640 medium supplemented with 10% fetal bovine serum, 100 U/mL penicillin and […] streptomycin.
(§2) The viability of cells was measured by a colorimetric MTT assay. Briefly, 1 × 10^4 cells/well in 96-well microplates were exposed to different concentration of polyynes and their acetylated derivatives respectively for 24 h incubation, following addition of 20 μL MTT solution (4 mg/mL) to each well for another 4 h incubation at 37 °C. Finally, the medium was removed and replaced with 100 μL dimethyl sulfoxide which was added to dissolve the dye crystal presented in cells. The absorbance was recorded at 570 nm using a microplate reader (1420 Multilabel counter victor^3, Perkin-Elmer, Waltham, MA, USA). The results were expressed as ratio of absorbance between treatments and control cells (solvent vehicle set at 100%). Four replicate wells were tested per assay which was repeated three times.

MCF-7 cells = assay: MTT cell viability assay, MCF-7 cells; details: for IC50: read-out: IC50 MCF-7; for antiproliferative effect on MCF-7 cells (in words): concentrations 1–300 µM
Protocol: as §1, §2

HepG2 cells = assay: MTT cell viability assay, HepG2 cells; details: for IC50: read-out: IC50 HepG2; for antiproliferative effect on HepG2 cells (in words): concentrations 1–300 µM
Protocol: as §1, §2

LO2 cells = assay: MTT cell viability assay, normal hepatic LO2 cells; details: read-out: IC50 LO2
Protocol: as §1, §2

MDA-MB-231 cells [1] = assay: MTT cell viability assay, MDA-MB-231 cells; details: for IC50: read-out: IC50 MDA-MB-231
Protocol: as §1, §2

MDA-MB-231 cells [2] = assay: Hoechst 33342 staining for apoptosis; details: OHR-1 15 μM, OHR-2 5 μM, OHR-3 10 μM, OHR-5 15 μM; 12 h
Protocol: MDA-MB-231 cells were seeded in the flat-bottomed 6-well plates and treated with OHR-1, -2, -3 and -5. Cells treated with solvent vehicle served as controls. In 12 h after treatment, cells were fixed in 4% polyoxymethylene solution for 30 min and then washed with PBS. The fixed cells were incubated with Hoechst 33342 for 15 min at room temperature in the dark and then washed with PBS twice, which were finally observed under a fluorescence microscope (Convert Fluorescence Microsope Axiovert 200, HAL 100, HBO 100, Carl Zeiss MicroImaging Co., Ltd., Oberkochen, Germany) at a magnification of ×400.

MDA-MB-231 cells [3] = assay: JC-1 mitochondrial membrane potential; details: high concentration (OHR-1 15 μM, OHR-2 5 μM, OHR-3 10 μM, OHR-5 15 μM), 24 h
Protocol: The MDA-MB-231 cells were treated with OHR-1, -2, -3 and -5 for 24 h in a humidified atmosphere (37 °C with 5% CO2). The cells were collected and responded in 0.5 mL culture medium with JC-1 dye (1 μg/mL) for 20 min at 37 °C in dark. Fluorescence was monitored by both flow cytometry (BD Biosciences, San Jose, CA, USA) and fluorescence microscope. The Δψm were indicated by the rato of […] fluorescence intensity. The data were expressed as ratio of Δψm between treatments and control cells (solvent vehicle set at 100%).

MDA-MB-231 cells [4] = assay: Cell cycle analysis by PI staining and flow cytometry; details: 24 h; for G2/M arrest rate at low concentration: OHR-1 7.5 μM, OHR-2 2.5 μM, OHR-3 5 μM, OHR-5 7.5 μM; for G2/M arrest rate at high concentration: OHR-1 15 μM, OHR-2 5 μM, OHR-3 10 μM, OHR-5 15 μM
Protocol: Cells were seeded in 6-well tissue culture plates and treated with DMSO control or different concentration of OHR-1, -2, -3 and -5 for 24 h. Then, the cells were harvested and fixed gently with cold 70% ethanol at −20 °C overnight. Finally, the cells were washed with PBS and re-suspended in 300 μL of propidium iodide (PI) stain solution (20 μg/mL PI and 8 μg/mL DNase-free RNase) for 20 min at room temperature in the dark. The cells were analyzed with a flow cytometry and Mod Fit LT 3.0 software (Variety Software House, Topsham, ME, USA). For each measurement, at least 20,000 cells were counted.

[5] = normal human hepatic cells, MTT, 24 h incubation
[6] = Homo sapiens, A549, MTT, 24 h incubation
[7] = Homo sapiens, MCF7, MTT, 24 h incubation
[8] = Homo sapiens, HepG2, MTT, 24 h incubation
[9] = L02, normal human hepatic cells, MTT, 24 h incubation
[10] = Homo sapiens, MDA-MB-231, MTT, 24 h incubation

Compound | IC50 (A549 cells; MTT, 24 h incubation) | IC50 (MCF-7 cells; MTT, 24 h incubation) [µM] | IC50 (HepG2 cells; MTT, 24 h incubation) [µM] | IC50 (LO2 cells; [5]) [µM] | IC50 (MDA-MB-231 cells [1]; MTT, 24 h incubation) [µM] | IC50 (A549 cells; [6]) [µM] | IC50 (MCF-7 cells; [7]) [µM] | IC50 (HepG2 cells; [8]) [µM] | IC50 (LO2 cells; [9]) [µM] | IC50 (MDA-MB-231 cells [1]; [10]) [µM] | other results
(11S,16S,Z)-16-Hydroxyoctadeca-9,17-dien-12,14-diyne-1,11-diyl diacetate [OHR-10] | 101 ± 7.3 µM | 94.3 ± 6.1 | 78.4 ± 6.5 | 100 to 300 | 56.7 ± 6.9 | – | – | – | – | – | –
CCCCCCC/C=C\[C@H](O)C#CC#C[C@@H](O)CC [OH-2, (3S,8S,Z)-Heptadeca-9-en-4,6-diyne-3,8-diol] | – | – | – | – | – | 44.1 ± 9.4 | 27.5 ± 2.2 | 38.4 ± 7.5 | 30.2 ± 4.8 | 14.7 ± 2.7 | –
(11S,16S,Z)-11-Hydroxyoctadeca-9-en-12,14-diyne-1,16-diyl diacetate [OHR-11] | 98.2 ± 17.5 µM | 78.1 ± 3.4 | 77 ± 9.5 | 93.1 ± 14 | 51.5 ± 8.4 | – | – | – | – | – | –
(3S,8S,Z)-3,18-Dihydroxyoctadeca-1,9-dien-4,6-diyn-8-yl acetate [OHR-15] | > 300 µM | > 300 | > 300 | > 300 | 100 to 300 | – | – | – | – | – | antiproliferative effect on A549 cells (in words) (A549 cells): no cytotoxicity; antiproliferative effect on MCF-7 cells (in words) (MCF-7 cells): no cytotoxicity; antiproliferative effect on HepG2 cells (in words) (HepG2 cells): no cytotoxicity
(3S,8S,Z)-Heptadeca-9-en-4,6-diyne-3,8-diyl diacetate [OHR-1] | > 300 µM | > 300 | 115 ± 17.1 | > 300 | 13.9 ± 3.4 | – | – | – | – | – | induction of apoptosis (Hoechst staining) (MDA-MB-231 cells [2]): induce obvious apoptosis; effect on mitochondrial membrane potential Δψm (JC-1) (MDA-MB-231 cells [3]): decreasing the Δψm; G2/M arrest rate at low concentration (MDA-MB-231 cells [4]): 24.6% ± 3.6%; G2/M arrest rate at high concentration (MDA-MB-231 cells [4]): 31.7% ± 3.2%
C=C[C@H](O)C#CC#C[C@@H](O)/C=C\CCCCCCCCOC(C)=O [OH-3, (11S,16S,Z)-11,16-Dihydroxyoctadeca-9,17-dien-12,14-diynyl acetate] | – | – | – | – | – | 98 ± 6.3 | 93.6 ± 6.1 | 47.2 ± 5.9 | 90.3 ± 6.4 | 16.5 ± 2.2 | –
(3S,8S,Z)-3-Hydroxyheptadeca-1,9-dien-4,6-diyn-8-yl acetate [OHR-5] | 30.1 ± 4.4 µM | 30.6 ± 3.1 | 43.7 ± 6.6 | 31.1 ± 1.8 | 13.9 ± 5.8 | – | – | – | – | – | induction of apoptosis (Hoechst staining) (MDA-MB-231 cells [2]): induce obvious apoptosis; effect on mitochondrial membrane potential Δψm (JC-1) (MDA-MB-231 cells [3]): decreasing the Δψm; G2/M arrest rate at low concentration (MDA-MB-231 cells [4]): 33.2% ± 4.6%; G2/M arrest rate at high concentration (MDA-MB-231 cells [4]): 38.0% ± 1.7%
(3S,8S,Z)-8-Hydroxyheptadeca-1,9-dien-4,6-diyn-3-yl acetate [OHR-6] | – | – | 38.5 ± 6.2 | 46.1 ± 11.7 | 36.2 ± 13.4 | – | – | – | – | – | –
(3S,8S,Z)-18-Hydroxyoctadeca-1,9-dien-4,6-diyne-3,8-diyl diacetate [OHR-14] | > 300 µM | > 300 | 150 to 300 | > 300 | 156 ± 35.5 | – | – | – | – | – | antiproliferative effect on A549 cells (in words) (A549 cells): no cytotoxicity; antiproliferative effect on MCF-7 cells (in words) (MCF-7 cells): no cytotoxicity; antiproliferative effect on HepG2 cells (in words) (HepG2 cells): no cytotoxicity; concentration showing some antiproliferative effects on MDA-MB-231 cells (MDA-MB-231 cells [1]): about 150 µM
(3S,8S,Z)-Heptadeca-1,9-dien-4,6-diyne-3,8-diyl diacetate [OHR-2] | 24.7 ± 5.6 µM | 36.9 ± 4.8 | 6.6 ± 1.5 | 32.1 ± 9 | 4.8 ± 0.5 | – | – | – | – | – | induction of apoptosis (Hoechst staining) (MDA-MB-231 cells [2]): induce obvious apoptosis; effect on mitochondrial membrane potential Δψm (JC-1) (MDA-MB-231 cells [3]): decreasing the Δψm; G2/M arrest rate at low concentration (MDA-MB-231 cells [4]): 22.6% ± 2.6%; G2/M arrest rate at high concentration (MDA-MB-231 cells [4]): 30.4% ± 3.1%
CC[C@H](O)C#CC#C[C@@H](O)/C=C\CCCCCCCCOC(C)=O [OH-4, (11S,16S,Z)-11,16-Dihydroxyoctadeca-9-en-12,14-diynyl acetate] | – | – | – | – | – | 109.9 ± 0.8 | 100 ± 7 | 69.1 ± 1.8 | 91.9 ± 13.4 | 87.8 ± 7.9 | –
C=C[C@H](O)C#CC#C[C@@H](O)/C=C\CCCCCCCCO [OH-5, (11S,16S,Z)-Octadeca-9,17-dien-12,14-diyne-1,11,16-triol] | – | – | – | – | – | 150 to 300 | 94.4 ± 7.3 | 48.3 ± 5.9 | 91 ± 9.5 | 49 ± 10.9 | –
(11S,16S,Z)-Octadeca-9,17-dien-12,14-diyne-1,11,16-triyl triacetate [OHR-8] | > 300 µM | > 300 | 100 to 300 | > 300 | 19.6 ± 6.9 | – | – | – | – | – | –
(11S,16S,Z)-Octadeca-9-en-12,14-diyne-1,11,16-triyl triacetate [OHR-7] | > 300 µM | > 300 | > 300 | > 300 | > 300 | – | – | – | – | – | –
(3S,8S,Z)-18-Hydroxyoctadeca-9-en-4,6-diyne-3,8-diyl diacetate [OHR-13] | > 300 µM | > 300 | > 300 | > 300 | 137 ± 28.4 | – | – | – | – | – | antiproliferative effect on A549 cells (in words) (A549 cells): no cytotoxicity; antiproliferative effect on MCF-7 cells (in words) (MCF-7 cells): no cytotoxicity; antiproliferative effect on HepG2 cells (in words) (HepG2 cells): no cytotoxicity; concentration showing some antiproliferative effects on MDA-MB-231 cells (MDA-MB-231 cells [1]): about 150 µM
(3S,8S,Z)-8-Hydroxyheptadeca-9-en-4,6-diyn-3-yl acetate [OHR-4] | 31.4 µM and 33.3 µM | 28 ± 2.9 | 59.5 ± 3.1 | 34.3 ± 1.5 | 23.4 ± 3.2 | – | – | – | – | – | –
CC[C@H](O)C#CC#C[C@@H](O)/C=C\CCCCCCCCO [OH-6, (11S,16S,Z)-Octadeca-9-en-12,14-diyne-1,11,16-triol] | – | – | – | – | – | 85.7 ± 13.2 | 106 ± 13.2 | 45.3 ± 6.3 | 90.8 ± 4 | 55.7 ± 11.8 | –
C=C[C@H](O)C#CC#C[C@@H](O)/C=C\CCCCCCC [OH-1, (3S,8S,Z)-Heptadeca-1,9-dien-4,6-diyne-3,8-diol] | – | – | – | – | – | – | – | – | – | – | IC50 (A549 cells; Homo sapiens, A549, 24 h): 23.5 ± 4.1 µM; inhibition at 60 µM (A549 cells; Homo sapiens, A549, read-out: A549 cell growth inhibited): 95.6%; IC50 (MCF-7 cells; Homo sapiens, MCF7, 24 h): 15.3 ± 0.3 µM; IC50 (HepG2 cells; Homo sapiens, HepG2, 24 h): 7.7 ± 1.3 µM; IC50 (LO2 cells; Homo sapiens, L02, 24 h): 8.7 ± 0.5 µM; IC50 (MDA-MB-231 cells [1]; Homo sapiens, MDA-MB-231, 24 h): 4.7 ± 1.4 µM
C=C[C@@H](C#CC#C[C@@H](O)/C=C\CCCCCCCCOC(C)=O)OC(C)=O [OHR-9] | – | – | – | – | – | 83.1 ± 8.4 | 81.3 ± 1 | 59.9 ± 3 | 86.2 ± 11.3 | 52 ± 7.5 | –
CC[C@H](O)C#CC#C[C@H](/C=C\CCCCCCCCOC(C)=O)OC(C)=O [OHR-12, (11S,16S,Z)-16-Hydroxyoctadeca-9-en-12,14-diyne-1,11-diyl diacetate] | – | – | – | – | – | 100 to 300 | 90.7 ± 0.3 | 100 to 300 | 100 to 300 | 77.7 ± 1.9 | –
